Each structure is given as a SMILES string. Read-outs that look alike come from different tables or passages of the source.

One series addresses T1, hMAO-A (Homo sapiens, UniProt P21397).
T1 sequence (P21397 1-527): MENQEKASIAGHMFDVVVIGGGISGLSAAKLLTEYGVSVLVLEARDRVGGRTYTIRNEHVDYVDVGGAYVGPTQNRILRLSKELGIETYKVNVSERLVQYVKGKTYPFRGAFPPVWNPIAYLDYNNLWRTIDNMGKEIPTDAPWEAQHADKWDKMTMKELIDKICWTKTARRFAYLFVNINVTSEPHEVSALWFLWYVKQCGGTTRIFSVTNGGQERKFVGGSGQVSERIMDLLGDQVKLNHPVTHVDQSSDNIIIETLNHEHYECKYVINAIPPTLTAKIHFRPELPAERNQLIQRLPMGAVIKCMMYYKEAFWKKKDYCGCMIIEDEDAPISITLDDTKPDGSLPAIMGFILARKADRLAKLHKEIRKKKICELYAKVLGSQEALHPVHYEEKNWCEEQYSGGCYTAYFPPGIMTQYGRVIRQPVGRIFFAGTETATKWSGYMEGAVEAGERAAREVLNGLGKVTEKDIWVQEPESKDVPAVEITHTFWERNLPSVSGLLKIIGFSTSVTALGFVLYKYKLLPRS
The series can be described thus: hMAO inhibition assay (Amplex Red fluorescence), hMAO-A, p-tyramine substrate. The series is classed as biochemical. The settings on record: recombinant hMAO-A. On the procedure:
The hMAO inhibition assay was performed as previously described. Adequate amounts of recombinant hMAO-A/B were acquired and adjusted to 12.5 µg/mL or 75 µg/mL for hMAO-A or hMAO-B, respectively, with sodium phosphate buffer (50 mM, pH 7.4). The test compounds were dissolved in DMSO as stock solutions (10 mM) and diluted with sodium phosphate buffer (50 mM, pH 7.4) to the corresponding concentrations. Then the test compounds (20 µL) and hMAO (80 µL) were incubated for 15 min at 37 °C in a flat, black-bottomed 96-well microtest plate in the dark. The reaction was initiated by adding Amplex Red reagent (200 µM, final concentration), horseradish peroxidase (2 U/mL, final concentration), and 2 mM p-tyramine for hMAO-A or 2 mM benzylamine (final concetration) for hMAO-B and incubated at 37 °C for 20 min. Activity was quantified in a multi detection microplate fluorescence reader (SpectraMax M5, Molecular Devices, USA) based on the fluorescence generated (excitation, 545 nm; emission, 590 nm). The specific fluorescence emission was calculated after subtraction of the background activity. The background activity was determined from wells containing all components except the hMAO isoforms, which were replaced by a sodium phosphate buffer solution. The percentage inhibition was calculated by the following expression: (1 – IFi/IFc) × 100, in which IFi and IFc are the fluorescence intensities obtained for hMAO in the presence and absence of inhibitors after subtracting the respective background. […]

For series [1], the target named is T2, hMAO-B (Homo sapiens, UniProt P27338).
T2 sequence (P27338 1-520): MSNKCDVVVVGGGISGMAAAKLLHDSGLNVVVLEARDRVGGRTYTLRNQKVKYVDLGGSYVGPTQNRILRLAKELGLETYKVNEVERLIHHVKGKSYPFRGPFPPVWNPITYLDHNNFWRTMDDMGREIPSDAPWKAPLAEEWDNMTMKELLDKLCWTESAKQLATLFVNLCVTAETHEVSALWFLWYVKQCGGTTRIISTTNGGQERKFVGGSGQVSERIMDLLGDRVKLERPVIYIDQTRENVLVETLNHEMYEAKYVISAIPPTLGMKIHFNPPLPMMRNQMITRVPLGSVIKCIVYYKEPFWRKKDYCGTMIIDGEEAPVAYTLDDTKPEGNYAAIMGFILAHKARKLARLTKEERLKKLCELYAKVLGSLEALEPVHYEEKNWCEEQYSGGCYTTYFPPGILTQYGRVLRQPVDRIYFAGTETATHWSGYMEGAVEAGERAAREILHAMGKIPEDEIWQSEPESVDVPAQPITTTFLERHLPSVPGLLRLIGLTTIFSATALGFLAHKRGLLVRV
The series can be described thus: Reversibility study: time-dependent inhibition of hMAO-B. The settings on record: for IC80: compounds used at the concentration of their IC80; for time after which the residual activity of hMAO-B began to increase: inhibitor at IC80; for reversibility of hMAO-B inhibition: inhibitor at IC80, activity followed for 120 min. The series is classed as biochemical. On the procedure:
Control experiments without inhibitors were run simultaneously. The enzymatic activity was determined as described above. The percentage of enzyme activity was plotted against the incubation time to determine time-dependent enzyme inhibition.

The subject of a further series is BV2 microglia cells. The series can be described thus: MTT assay, cytotoxicity. The settings on record: 5 and 25 µM for 24 h. The series is classed as cell-based. On the procedure: The 3–(4, 5-dimethylthiazol-2-yl)-2,5-diphenyltetrazolium (MTT) assay was performed as previously described. BV2 Cells were plated at 5000 cells per well and allowed to grow at 37 °C overnight. Then the cells were treated with various concentrations of the tested compounds for 24 h at 37 °C in a humidified atmosphere with 5% CO2, 0.5% DMSO acted as the vehicle control. The cell culture medium was then removed, followed by the addition of fresh cell culture medium containing 5.0 g/L MTT (20 µL/per well) and incubation at 37 °C in a humidified, 5% CO2 atmosphere for 4 h. After this incubation period, the cell culture medium was removed and the formed formazan crystals dissolved in 100% DMSO. The absorbance was measured at 570 nm in a multi-well plate reader. The results are expressed as % relative cell viability compared to DMSO vehicle control.

Series [2] has as its target T2, hMAO-B. The series can be described thus: Enzyme kinetic study (Lineweaver–Burk plots). The series is classed as biochemical. The conditions noted are these: benzylamine 1, 2, 4 and 8 mM. On the procedure: To evaluate the mode of MAO-B inhibition, the representative compound was evaluated in substrate-dependent kinetic experiments performed as previously described. Sets of Lineweaver–Burk plots were generated. The reciprocal MAO-B activity was plotted against the reciprocal substrate concentration. […] The enzymatic reactions and measurements were performed using human MAO-B assay conditions as described above for the determination of IC50 values.

Series [3] has as its target T2, hMAO-B. The series can be described thus: hMAO inhibition assay (Amplex Red fluorescence), hMAO-B, benzylamine substrate. The settings on record: for Selectivity Index (SI): SI = IC50 (hMAO-A)/IC50 (hMAO-B); for fold higher inhibitory potency than 4: from IC50, versus compound 4; for inhibition at 1 µM: tested concentration 1 µM. The series is classed as biochemical. As for the experimental part:
The hMAO inhibition assay was performed as previously described. […] The test compounds were dissolved in DMSO as stock solutions (10 mM) and diluted with sodium phosphate buffer (50 mM, pH 7.4) to the corresponding concentrations. […] The specific fluorescence emission was calculated after subtraction of the background activity. The background activity was determined from wells containing all components except the hMAO isoforms, which were replaced by a sodium phosphate buffer solution. The percentage inhibition was calculated by the following expression: (1 – IFi/IFc) × 100, in which IFi and IFc are the fluorescence intensities obtained for hMAO in the presence and absence of inhibitors after subtracting the respective background.

For series [4], the target named is T2, hMAO-B. The conditions noted are these: cited from earlier work.
Where [5] appears, read: recombinant hMAO-B, read-out: hMAO-B IC50.

Take `O=C(/C=C/c1ccc2c(c1)OCCO2)c1cccc(Cl)c1` [Compound 17, (E)-1-(3-chlorophenyl)-3-(2,3-dihydrobenzo[b][1,4]dioxin-6-yl)prop-2-en-1-one]: the melting point was in the range of 125.5 to 127 °C. Also, the IC50 on hMAO-A is above 40000 nM. Also, at hMAO-B [1], the IC80 turned out to be 280 nM, the “time after which the residual activity of hMAO-B began to increase” value is 20 min and the “reversibility of hMAO-B inhibition” value is “reversible”. The “Cell viability of BV2 cells” value in the series on BV2 microglia cells is listed as “no considerable decrease in cellular viability”. Also, on hMAO-B [2], the “mode of hMAO-B inhibition” value is “competitive”. Further, on hMAO-B [3], the “Selectivity Index (SI)” value is on record as above 702, the “fold higher inhibitory potency than 4” value is 1.7–4 fold and testing at 1 µM gave an inhibition of 93.4%. In addition, the IC50 on hMAO-B [3] (setting [5]) turned out to be 57 ± 4 nM.
On to `C#CCN[C@@H]1CCc2ccccc21` [rasagiline, reference compound], for which the IC80 against hMAO-B [1] amounted to 200 nM.
Consider `O=C(/C=C/c1ccc2c(c1)OCCO2)c1cccc(Br)c1` [Compound 16, (E)-1-(3-bromophenyl)-3-(2,3-dihydrobenzo[b][1,4]dioxin-6-yl)prop-2-en-1-one], for which the melting point lay in the range of 119.3 to 120.4 °C. In addition, on hMAO-A, the IC50 is above 40000 nM. At hMAO-B [1], the IC80 is 280 nM, the “time after which the residual activity of hMAO-B began to increase” value came to 20 min and the “reversibility of hMAO-B inhibition” value was “reversible”. The “Cell viability of BV2 cells” value with BV2 microglia cells is “no considerable decrease in cellular viability”. Besides, on hMAO-B [2], the “mode of hMAO-B inhibition” value is “competitive”. Further, on hMAO-B [3], the “Selectivity Index (SI)” value is above 727, the “fold higher inhibitory potency than 4” value is 1.7–4 fold and 1 µM produced 93.3% inhibition. The IC50 on hMAO-B [3] (setting [5]) turned out to be 55 ± 2 nM.
Consider `O=C(/C=C/c1ccc2c(c1)OCO2)c1cccc(Br)c1` [Compound 27, (E)-3-(benzo[d][1,3]dioxol-5-yl)-1–(3-bromophenyl)prop-2-en-1-one], for which the melting point is 111.8 to 112.6 °C. On hMAO-A, the IC50 was above 40000 nM. On hMAO-B [3], the “Selectivity Index (SI)” value is above 143 and the inhibition at 1 µM came out at 80.4%. Moreover, the IC50 on hMAO-B [3] (setting [5]) is 280 ± 2 nM.
In turn, `O=C(/C=C/c1ccc2c(c1)OCCO2)c1cc(Br)ccc1O` [Compound 24, (E)-1-(5-bromo-2-hydroxyphenyl)-3-(2,3-dihydrobenzo[b][1,4]dioxin-6-yl)prop-2-en-1-one] returned a melting point of 141.8 to 143.7 °C. Further, the 50% inhibitory concentration (IC50) at hMAO-A is above 40000 nM. Moreover, at hMAO-B [3], the “Selectivity Index (SI)” value is above 160 and 1 µM produced 77.1% inhibition. The half-maximal inhibitory concentration (IC50) on hMAO-B [3] (setting [5]) turned out to be 250 ± 30 nM.
As for `COc1ccc(C(=O)/C=C/c2ccc(Cl)cc2)c(O)c1` [Compound 5i], on hMAO-B [4] (ref [12]), the “inhibition mode of hMAO-B” value is “irreversible inhibition”.
Consider `C[C@H](NCc1ccc(OCc2cccc(F)c2)cc1)C(N)=O` [safinamide, reference compound], for which, on hMAO-B [1], the 80% effect level (IC80) was put at 60 nM, the “time after which the residual activity of hMAO-B began to increase” value worked out at 15 min and the “reversibility of hMAO-B inhibition” value is on record as “reversible”.
`Cc1ccc(C(=O)/C=C/c2ccc(F)c(Br)c2)s1` [Compound 4h]: the “inhibition mode of hMAO-B” value on hMAO-B [4] (ref [13]) is “reversible inhibition”.
In the case of `Brc1cccc(COc2ccc3c(c2)OCCO3)c1` [Compound 7c], the “inhibition mode of hMAO-B” value at hMAO-B [4] (ref [17]) was “reversible inhibition”.
As for `O=C(/C=C/c1ccc2c(c1)OCCO2)c1ccccc1F` [Compound 12, (E)-3–(2,3-dihydrobenzo[b][1,4]dioxin-6-yl)-1-(2-fluorophenyl)prop-2-en-1-one], the melting point is 93.7 to 95.4 °C. Also, on hMAO-A, the half-maximal inhibitory concentration (IC50) is above 40000 nM. Moreover, at hMAO-B [3], the “Selectivity Index (SI)” value is recorded as above 333, the “fold higher inhibitory potency than 4” value is reported as 1.8–4.1 fold and the inhibition at 1 µM is 89.2%. Also, at hMAO-B [3] (setting [5]), the IC50 came to 120 ± 10 nM.
With `O=C(/C=C/c1ccc2c(c1)OCCO2)c1ccc(O)cc1O` [Compound 10, (E)-3-(2,3-dihydrobenzo[b][1,4]dioxin-6-yl)-1–(2,4-dihydroxyphenyl)prop-2-en-1-one], the melting point is 169.5 to 170.8 °C. For the same molecule, at hMAO-A, the half-maximal inhibitory concentration (IC50) is above 40000 nM. At hMAO-B [3], the inhibition at 1 µM is 69.5%.
Take `O=C(/C=C/c1ccc2c(c1)OCCO2)c1ccc(F)c(Br)c1` [Compound 22, (E)-1-(3-bromo-4-fluorophenyl)-3-(2,3-dihydrobenzo[b][1,4]dioxin-6-yl)prop-2-en-1-one]: the IC50 at hMAO-A is above 40000 nM. Further, on hMAO-B [1], the 80% effect level (IC80) was put at 190 nM, the “time after which the residual activity of hMAO-B began to increase” value came to 20 min and the “reversibility of hMAO-B inhibition” value is reported as “reversible”. The “Cell viability of BV2 cells” value with BV2 microglia cells was “no considerable decrease in cellular viability”. Also, the “mode of hMAO-B inhibition” value on hMAO-B [2] is reported as “competitive”. Moreover, on hMAO-B [3], the IC50 came out at 26 ± 1 nM and 1 µM produced 95.6% inhibition.
`O=C(/C=C/c1ccc2c(c1)OCCO2)c1cccc(O)c1` [Compound 9, (E)-3–(2,3-dihydrobenzo[b][1,4]dioxin-6-yl)-1-(3-hydroxyphenyl)prop-2-en-1-one] yielded a melting point of 196.8 to 198.5 °C. Further, the IC50 on hMAO-A was above 40000 nM. Also, on hMAO-B [3], the “Selectivity Index (SI)” value is above 267 and 1 µM produced 86.3% inhibition. In addition, the IC50 on hMAO-B [3] (setting [5]) was found to be 150 ± 7 nM.
Take `O=C(/C=C/c1ccc2c(c1)OCCO2)c1ccccc1Cl` [Compound 13, (E)-1-(2-chlorophenyl)-3-(2,3-dihydrobenzo[b][1,4]dioxin-6-yl)prop-2-en-1-one]: the melting point fell in the range of 67.5 to 69.4 °C. Moreover, the IC50 on hMAO-A was above 40000 nM. At hMAO-B [3], the “Selectivity Index (SI)” value was above 741, the “fold higher inhibitory potency than 4” value was 1.8–4.1 fold and 1 µM produced 92.4% inhibition. Besides, the IC50 at hMAO-B [3] (setting [5]) turned out to be 54 ± 6 nM.

In general, melting point refers to the temperature, or range, at which the solid turns liquid. The IC50 is the concentration needed to halve the response being measured. As usually defined, the IC80 is the concentration at which the effect reaches the 80% level. A high value points to weaker potency. Broadly, the inhibition is the relative decrease from the control value, in per cent. A higher inhibition goes with strong suppression.
